Measurements from article PMC9071858, “Comparative Pharmacokinetics of Seven Major Compounds in Normal and Atherosclerosis Mice after Oral Administration of Simiao Yong'an Decoction” (Evidence-based Complementary and Alternative Medicine : eCAM, 2022).

Experiments:
[1] = Pharmacokinetic study in normal control (NC) mice after oral administration of SMYAD; assay type: in vivo, mouse; conditions: NC mice, plasma, SMYAD intragastric 35 g/kg/d for seven days, mean ± SD, n = 5; for AUC(0-t) / AUC(0-inf) / Cmax / half-life / Tmax: male, C57BL/6J, mouse, po, 35 g/kg/day; for AUC(0-t): read-out: AUC0–t; for AUC(0-inf): read-out: AUC0–∞; for Cmax: read-out: C max; for half-life: read-out: t 1/2 (converted); for Tmax: read-out: t max
Procedure: (§1) Male C57BL/6J mice and ApoE^−/− mice on a C57BL/6 background (7 weeks old, 18–22 g) were purchased from Beijing Vital River Laboratory Animal Technology Co., Ltd. (Beijing, China, Certificate No.: SCXK (Jing) 2016-0006). All the mice were kept in an SPF animal house (Dongzhimen Hospital Affiliated to Beijing University of Chinese Medicine, Certificate No.: SYXK (Jing) 2015-0001) with food and water freely available, 12 h light/dark, and environmental conditions of 22°C–24°C, 50% relative humidity. All protocols of animal experiments were performed in accordance with the National Guidelines for Laboratory Animal Welfare and were approved by the Animal Ethics Committee of Beijing University of Chinese Medicine (NO. BUCM-4-2015071701-3001). High-fat feeding (containing 15% fat and 0.25% cholesterol) was provided by Beijing HFK bioscience CO., LTD. (Beijing, China, Certificate No.: SCXK (Jing) 2014-0018).
(§2) After successful induction of AS model, SMYAD was administered to NC and AS mice by intragastric gavage at the crude drug dose of 35 g/kg/d for seven days. Blood samples were collected from each mouse in heparinized tubes via the postorbital venous plexus veins at 0, 0.25, 0.5, 1, 2, 4, 6, 8, 10, 12, 18, and 24 h after seven days of drug administration. Then blood samples were immediately centrifuged at 3500 rpm at 4°C for 10 min and the plasma was stored at −80°C until use.
(§3) Each plasma sample (100 μL) was mixed with a threefold volume of methanol and 25 μL IS in a 1.5 mL EP tube. Then the mixture was vortexed for 100 seconds and centrifuged at 12,000 rpm for 10 min at 4°C. The supernatant was transferred to another EP tube and evaporated to dryness under a nitrogen vacuum. The residue was reconstituted with 100 μL of 50% methanol and centrifuged at 15,000 rpm for 15 min. Then the supernatant was transferred to sample vials for the LC-MS analysis.
(§4) A Vanquish UHPLC™ system (Thermo Fisher Scientific Inc., USA) was used for the analysis. Samples were separated on an Atlantis T3 column (4.6 mm × 150 mm, 3 μm; Waters, USA). The column temperature was 40°C. The mobile phase, at 0.4 mL/min, consisted of water containing 0.1% formic acid (v/v, A) and methanol (B). The quantitative analysis gradient program was as follows: 0-1 min, 0 B; 1–6 min, 0–100% B; 6–12 min, 100% B; 12–12.1 min, 100%-0 B; 12.1–15 min, 0 B. The injection volume was 5 μL.
(§5) The mass spectrometer Q Exactive HF-X (Thermo Fisher Scientific Inc., USA) system was connected to the UHPLC system via heated electrospray ionization (HESI) and controlled by Xcalibur 4.2 software (Thermo Fisher) that was used for data collection and analysis. The mass spectrometer was operated in a negative ionization mode. The MS parameters were set as follows: probe heater temperature, 350°C; capillary temperature: 320°C; sheath gas (N2) flow rate: 30 arbs; auxiliary gas (N2) flow rate: 10 arbs; spray voltage: 3.2 kV (negative); S-Lens RF level: 55 V; scan mode: full MS (resolution 12000); scan range: m/z 150–1500. The most abundant ions in the spectra were selected for sensitive quantitation ([M-H]^−of chlorogenic acid, angoroside C, liquiritin, isoliquiritigenin, and IS, [M + COOH]^− of harpagide, swertiamarin, and sweroside).
The pharmacokinetic parameters, including maximum plasma concentration (Cmax), time corresponding to Cmax (Tmax), terminal elimination half-life (T1/2), area under plasma concentration-time curve (AUC0–t) and area under the plasma concentration-time curve from 0 to infinity time (AUC0–∞), apparent volume of distribution (Vz/F) and clearance (CLz/F), were calculated using the noncompartment model in DAS 2.0 software package (Shanghai, China). GraphPad prism 6.02 (GraphPad Software, USA) was used in the statistical analysis. All values are expressed as mean ± standard error. For the pharmacokinetic parameter values of the NC and AS groups, Student's t-test was employed for data comparisons. P values <0.05 were considered statistically significant.

[2] = Pharmacokinetic study in atherosclerosis (AS) model ApoE−/− mice after oral administration of SMYAD; assay type: in vivo, mouse; conditions: AS mice, plasma, SMYAD intragastric 35 g/kg/d for seven days, mean ± SD, n = 5; for AUC(0-t) / AUC(0-inf) / Cmax / half-life / Tmax: male, ApoE−/− on a C57BL/6 background, mouse, po, 35 g/kg/day; for AUC(0-t): read-out: AUC0–t; for AUC(0-inf): read-out: AUC0–∞; for Cmax: read-out: C max; for half-life: read-out: t 1/2 (converted); for Tmax: read-out: t max
Procedure: as §1
The AS model was established by a high-fat diet and perivascular carotid collar placement (PCCP) surgery in the ApoE^−/− mice. After a 7-day adaptive feeding, the mice were given a high-fat diet for 2 weeks; before anesthesia, all ApoE^−/− mice were fasted for 12 hours. During the surgery, the right common carotid artery was exposed, and a silicone cannula (length: 2.5 mm, inner diameter: 0.3 mm) was fixed around the carotid artery (external diameter: about 0.5 mm). Penicillin was injected intraperitoneally for 3 days after surgery to prevent infection. High-fat diet continued for 8 weeks after surgery to establish AS model. Biochemical assays and hematoxylin and eosin (HE) staining were used to evaluate whether AS model was successfully established.
as §2, §3, §4
as §5, with “sweroside). […]” for “sweroside).”

[3] = Stability of analytes in QC plasma samples; assay type: in vitro ADME, mouse; conditions: n = 5
Procedure: All solutions were stored at 4°C.
Stability was evaluated as five replicate QC samples at two concentration levels (see Table 5).

[4] = high QC level (600 harpagide, 800 chlorogenic acid, 4800 swertiamarin, 1000 sweroside, 200 others ng/ml)
[5] = low QC level ([…] harpagide, 51.2 chlorogenic acid, 307.2 swertiamarin, 64 sweroside, 12.8 others ng/ml)

Compound	CLz/F [1] [L/h/mg]	Vz/F [1] [L/mg]	AUC(0-t) [1] [ng·h/mL]	AUC(0-inf) [1] [ng·h/mL]	Cmax [1] [ng/mL]	half-life [1] [min]	Tmax [1] [h]	CLz/F [2] [L/h/mg]	Vz/F [2] [L/mg]	AUC(0-t) [2] [ng·h/mL]	AUC(0-inf) [2] [ng·h/mL]	Cmax [2] [ng/mL]	half-life [2] [min]	Tmax [2] [h]	Freeze-thaw stability 3 freeze-thaw cycles Accuracy RE [3, 4] [%]	Freeze-thaw stability 3 freeze-thaw cycles Calc. conc. [3, 4] [ng/mL]	Long-term stability −20°C for 30 d Accuracy RE [3, 4] [%]	Long-term stability −20°C for 30 d Calc. conc. [3, 4] [ng/mL]	Postpreparative stability 24 h in the autosampler (4°C) Accuracy RE [3, 4] [%]	Postpreparative stability 24 h in the autosampler (4°C) Calc. conc. [3, 4] [ng/mL]	also measured
COc1ccc(CCO[C@@H]2O[C@H](CO[C@@H]3OC[C@H](O)[C@H](O)[C@H]3O)[C@@H](OC(=O)/C=C/c3ccc(O)c(OC)c3)[C@H](O[C@@H]3O[C@@H](C)[C@H](O)[C@@H](O)[C@H]3O)[C@H]2O)cc1O [Angoroside C, angoroside C]	29.75 ± 24.10	148.22 ± 76.23	1730 ± 883	1870 ± 1050	289 ± 124	444 ± 286	0.85 ± 0.62	18.79 ± 2.39	126.00 ± 102.72	1840 ± 298	1890 ± 226	491 ± 239	440 ± 281	2.05 ± 1.19	−1.74	196.52 ± 13.15	−10.51	178.97 ± 6.04	−7.27	185.46 ± 9.39	Short-term stability 24 h in room temperature (20°C) Accuracy RE [3, 4]: 1.92%; Short-term stability 24 h in room temperature (20°C) Calc. conc. [3, 4]: 203.84 ± 4.39 ng/mL; Freeze-thaw stability 3 freeze-thaw cycles Accuracy RE [3, 5]: 5.68%; Freeze-thaw stability 3 freeze-thaw cycles Calc. conc. [3, 5]: 13.53 ± 0.98 ng/mL; Long-term stability −20°C for 30 d Accuracy RE [3, 5]: 1.73%; Long-term stability −20°C for 30 d Calc. conc. [3, 5]: 13.02 ± 1.17 ng/mL; Postpreparative stability 24 h in the autosampler (4°C) Accuracy RE [3, 5]: 1.70%; Postpreparative stability 24 h in the autosampler (4°C) Calc. conc. [3, 5]: 13.02 ± 1.05 ng/mL; Short-term stability 24 h in room temperature (20°C) Accuracy RE [3, 5]: 4.09%; Short-term stability 24 h in room temperature (20°C) Calc. conc. [3, 5]: 13.32 ± 1.09 ng/mL
C=C[C@H]1[C@H](O[C@@H]2O[C@H](CO)[C@@H](O)[C@H](O)[C@H]2O)OC=C2C(=O)OCC[C@]21O [Swertiamarin, swertiamarin]	5.82 ± 2.64	20.82 ± 11.26	5350 ± 1180	5400 ± 1240	1430 ± 636	266 ± 124	5 ± 4.97	5.70 ± 1.93	55.16 ± 45.04	5540 ± 2010	7240 ± 3390	1340 ± 603	344 ± 114	0.9 ± 0.64	7.37	5153.93 ± 132.15	0.75	4835.93 ± 153.29	3.51	4968.64 ± 208.19	Short-term stability 24 h in room temperature (20°C) Accuracy RE [3, 4]: 9.88%; Short-term stability 24 h in room temperature (20°C) Calc. conc. [3, 4]: 5274.04 ± 147.92 ng/mL; Freeze-thaw stability 3 freeze-thaw cycles Accuracy RE [3, 5]: −5.86%; Freeze-thaw stability 3 freeze-thaw cycles Calc. conc. [3, 5]: 289.21 ± 13.27 ng/mL; Long-term stability −20°C for 30 d Accuracy RE [3, 5]: 1.41%; Long-term stability −20°C for 30 d Calc. conc. [3, 5]: 311.53 ± 14.38 ng/mL; Postpreparative stability 24 h in the autosampler (4°C) Accuracy RE [3, 5]: −4.67%; Postpreparative stability 24 h in the autosampler (4°C) Calc. conc. [3, 5]: 292.85 ± 19.45 ng/mL; Short-term stability 24 h in room temperature (20°C) Accuracy RE [3, 5]: −8.88%; Short-term stability 24 h in room temperature (20°C) Calc. conc. [3, 5]: 279.92 ± 15.61 ng/mL
